Values joined by “and” are separate entries in the source; they are usually repeats but may differ in a detail not shown here. Identical values can stand only once. “Also recorded” adds a separate entry of the source. Like-named read-outs stand apart in the source and are kept apart here.
Tests used:
Type in all cases: in vivo
SARS-CoV-2 [1] = system: SARS-CoV-2
SARS-CoV-2 [2] = system: SARS-CoV-2; remark: listed apart in the source
SARS-CoV-2 RNA = test: Phase 2a trial: RT-PCR for SARS-CoV-2 RNA in nasopharyngeal swabs (Example 2)
[3] = Part 2 interim analysis, MITT, 800 mg twice daily 5 days
[4] = Part 2 interim analysis, versus placebo
[5] = Part 2 interim, post-hoc sensitivity analysis, MITT
[6] = MITT population, through day 29
[7] = safety population, all postbaseline visits through day 29
[8] = subgroup hospitalized after randomization, vs placebo

With `CC(C)C(=O)OC[C@H]1O[C@@H](n2ccc(NO)nc2=O)[C@H](O)[C@@H]1O` [Compound A, {(2R,3S,4R,5R)-3,4-dihydroxy-5-[4-(hydroxyimino)-2-oxo-3,4-dihydropyrimidin-1 (2H)-yl]oxolan-2-yl}methyl 2-methylpropanoate] the “deaths through Day 29” value (SARS-CoV-2 [1]; Part 2 interim analysis) was “No participants in the Compound A group died; also recorded: No deaths were reported”, the “relative reduction in the percentage of participants hospitalized or died through Day 29” value (SARS-CoV-2 [1]; Part 2 interim analysis) was roughly 50% and the “treatment difference (Compound A minus placebo) in hospitalization or death at day 29” value (SARS-CoV-2 [1]; Part 2 interim analysis (28 of 385 vs 53 of 377), MITT) was −6.8 percentage points. The “hazard ratio for hospitalization/death through Day 29” value (SARS-CoV-2 [1]; Part 2 interim analysis, MITT) was 0.51, the “reduction in the risk of hospitalization/death through Day 29 (time-to-event analysis)” value (SARS-CoV-2 [1]; Part 2 interim analysis, MITT) was roughly 50% and the “participants hospitalized or died through Day 29” value (SARS-CoV-2 [1]; [3]) was 7.3%. The “reduction in the risk of hospitalization or death through Day 29 compared with placebo” value (SARS-CoV-2 [1]; [3]) was 6.8 percentage point, the “participants hospitalized or died through Day 29” value (SARS-CoV-2 [1]; Part 2 interim analysis, subgroup positive for SARS-CoV-2 antibodies at baseline) was 2.9% and the “progression of COVID-19 signs/symptoms” value (SARS-CoV-2 [1]; [4]) was “lower percentage of participants in the Compound A than the placebo group reported progression”. The “sustained improvement/resolution of self-reported COVID-19 signs/symptoms” value (SARS-CoV-2 [1]; [4]) was “higher percentage of participants in the Compound A group achieved earlier sustained improvement/resolution”, the “COVID-19-related hospitalizations and/or deaths through Day 29, n (%)” value (SARS-CoV-2 [1]; [5]) was 25 (6.5) n (%) and the “Unadjusted difference vs placebo in COVID-19-related hospitalizations and/or deaths” value (SARS-CoV-2 [1]; [5]) was −6.8. The “Adjusted difference in rates % (95% CI) vs placebo in COVID-19-related hospitalizations and/or deaths” value (SARS-CoV-2 [1]; Part 2 interim, post-hoc sensitivity analysis, MITT, Miettinen & Nurminen) was −6.8 (−11.1, −2.6) %, the “Covid-19 signs and symptoms versus placebo” value (SARS-CoV-2 [1]; final) was “sustained abatement or resolution was more likely” and the “deaths reported through day 29” value (SARS-CoV-2 [1]; final) was “One”. The 29-day all-cause mortality (SARS-CoV-2 [1]; final all-randomized MITT) was 0.1%, the “difference vs placebo in hospitalization or death through day 29” value (SARS-CoV-2 [1]; final all-randomized MITT) was −3.0 percentage points and the “hazard ratio for hospitalization or death through day 29” value (SARS-CoV-2 [1]; final all-randomized MITT) was 0.69. For the same molecule, the “rate of hospitalization or death through day 29 lower than placebo (time-to-event analysis)” value (SARS-CoV-2 [1]; final all-randomized MITT) was “approximately 31%”, the “participants hospitalized or died through day 29” value (SARS-CoV-2 [1]; final all-randomized MITT (48 of 709), 800 mg twice daily 5 days) was 6.8% and the “risk of hospitalization or death through day 29 lower than placebo, adjusted for participant sex” value (SARS-CoV-2 [1]; final, post hoc analysis) was 2.8 percentage points. For the same molecule, the “difference vs placebo in Covid-19-related hospitalizations or deaths” value (SARS-CoV-2 [1]; final, prespecified supporting analysis) was −2.8 percentage points, the “participants with Covid-19-related hospitalizations or deaths” value (SARS-CoV-2 [1]; final, prespecified supporting analysis (45 of 709)) was 6.3% and the “risk of death lower than with placebo” value (SARS-CoV-2 [1]; final, through day 29) was 89%. For the same molecule, the “proportion of participants who had a COVID-19-related acute care visit” value (SARS-CoV-2 [2]; [6]) was 6.6%, the “proportion of participants who had an acute care visit” value (SARS-CoV-2 [2]; [6]) was 7.2% and the “RRR, COVID-19-related acute care visit” value (SARS-CoV-2 [2]; MITT population, vs placebo) was 33.8%. For the same molecule, the “RRR, acute care visit” value (SARS-CoV-2 [2]; MITT population, vs placebo) was 32.1%, the “RRR, all respiratory interventions” value (SARS-CoV-2 [2]; MITT population, vs placebo) was 34.3% and the “RRR, high-flow heated and humidified device” value (SARS-CoV-2 [2]; MITT population, vs placebo) was 26.1%. The “RRR, invasive mechanical ventilation” value (SARS-CoV-2 [2]; MITT population, vs placebo) was 64.1%, the “RRR, noninvasive mechanical ventilation” value (SARS-CoV-2 [2]; MITT population, vs placebo) was 75.4% and the “RRR, oxygen therapy with conventional oxygen” value (SARS-CoV-2 [2]; MITT population, vs placebo) was 23.6%. The “mean change from baseline in CRP values versus placebo” value (SARS-CoV-2 [2]; [7]) was “earlier and larger reductions”, the “mean change from baseline in SpO2 values versus placebo” value (SARS-CoV-2 [2]; [7]) was “earlier and larger improvements” and the “median time to hospital discharge” value (SARS-CoV-2 [2]; subgroup hospitalized after randomization) was 9 days. For the same molecule, the “RRR, all respiratory interventions” value (SARS-CoV-2 [2]; [8]) was 21.3%, the “RRR, conventional oxygen” value (SARS-CoV-2 [2]; [8]) was 12.8% and the “RRR, high-flow heated and humidified device” value (SARS-CoV-2 [2]; [8]) was −4.7%. For the same molecule, the “RRR, invasive mechanical ventilation” value (SARS-CoV-2 [2]; [8]) was 49.2%, the “RRR, noninvasive mechanical ventilation” value (SARS-CoV-2 [2]; [8]) was 65.1% and the “Change from baseline in SARS-CoV-2 viral load, least squares mean” value (“Change from baseline … least squares mean” for short) (SARS-CoV-2 RNA; 200 mg, Day 3) was −0.783 log10 copies/ml. For the same molecule, the “Difference in least squares mean viral load change vs placebo” value (SARS-CoV-2 RNA; 200 mg, Day 3) was 0.064 log10 copies/ml, the “Change from baseline … least squares mean” value (SARS-CoV-2 RNA; 200 mg, Day 5) was −1.471 log10 copies/ml and the “Difference in least squares mean viral load change vs placebo” value (SARS-CoV-2 RNA; 200 mg, Day 5) was −0.150 log10 copies/ml. The “Change from baseline … least squares mean” value (SARS-CoV-2 RNA; 200 mg, Day 7) was −2.028 log10 copies/ml, the “Difference in least squares mean viral load change vs placebo” value (SARS-CoV-2 RNA; 200 mg, Day 7) was −0.076 log10 copies/ml and the “Change from baseline … least squares mean” value (SARS-CoV-2 RNA; 200 mg, Day 14) was −2.884 log10 copies/ml. The “Difference in least squares mean viral load change vs placebo” value (SARS-CoV-2 RNA; 200 mg, Day 14) was −0.019 log10 copies/ml, the “Change from baseline … least squares mean” value (SARS-CoV-2 RNA; 400 mg, Day 3) was −0.941 log10 copies/ml and the “Difference in least squares mean viral load change vs placebo” value (SARS-CoV-2 RNA; 400 mg, Day 3) was −0.094 log10 copies/ml. For the same molecule, the “Change from baseline … least squares mean” value (SARS-CoV-2 RNA; 400 mg, Day 5) was −1.754 log10 copies/ml, the “Difference in least squares mean viral load change vs placebo” value (SARS-CoV-2 RNA; 400 mg, Day 5) was −0.434 log10 copies/ml and the “Change from baseline … least squares mean” value (SARS-CoV-2 RNA; 400 mg, Day 7) was −2.263 log10 copies/ml. For the same molecule, the “Difference in least squares mean viral load change vs placebo” value (SARS-CoV-2 RNA; 400 mg, Day 7) was −0.311 log10 copies/ml, the “Change from baseline … least squares mean” value (SARS-CoV-2 RNA; 400 mg, Day 14) was −2.840 log10 copies/ml and the “Difference in least squares mean viral load change vs placebo” value (SARS-CoV-2 RNA; 400 mg, Day 14) was 0.026 log10 copies/ml. For the same molecule, the “Median time to response (SARS-CoV-2 viral RNA negativity)” value (SARS-CoV-2 RNA; 800 mg twice daily 5 days) was 14 days and 14.0 days, the “Change from baseline … least squares mean” value (SARS-CoV-2 RNA; 800 mg, Day 3) was −1.050 log10 copies/ml and the “Difference in least squares mean viral load change vs placebo” value (SARS-CoV-2 RNA; 800 mg, Day 3) was −0.203 log10 copies/ml. For the same molecule, the “Change from baseline … least squares mean” value (SARS-CoV-2 RNA; 800 mg, Day 5) was −1.867 log10 copies/ml, the “Difference in least squares mean viral load change vs placebo” value (SARS-CoV-2 RNA; 800 mg, Day 5) was −0.547 log10 copies/ml and the “Change from baseline … least squares mean” value (SARS-CoV-2 RNA; 800 mg, Day 7) was −2.485 log10 copies/ml. The “Difference in least squares mean viral load change vs placebo” value (SARS-CoV-2 RNA; 800 mg, Day 7) was −0.534 log10 copies/ml and the “Change from baseline … least squares mean” value (SARS-CoV-2 RNA; 800 mg, Day 14) was −3.040 log10 copies/ml.

Source: patent US20250205268A1, “TREATMENT OF VIRUSES WITH ANTIVIRAL NUCLEOSIDES” (priority 2021, published 2025)
